Measurements from patent US12059413B2, “Methods of inhibiting viruses using compositions targeting TSG101-ubiquitin interaction” (The Research Foundation for the State University of New York, priority 2016, dated 2024).

Assays:
Format in all cases: cell-based
[1] = test system: Tsg101 midbody localization; experiment: Tsg101 midbody localization in dividing cells; details: N16 50 uM; 200 cells sampled; 12% in absence
Method: (§1) FIG. 20A-C. N16 inhibition is virus-specific. A) N16 IC50 for Hela and 293T cells. […] Values were calculated by measuring metabolic activity (WST-1 Assay, Roche Applied Science) after cells were grown for 24 hr in N16. Data points represent the mean of 2 assays, 3 time points each for each cell line. […] Values in the absence or presence of N16 (50 uM) were 12% and 13%, respectively). C) N16 effect on EGF-stimulated EFGR degradation. Cells maintained for 24 hr in media containing DMSO alone or DMSO and N16 were stimulated with EGF ligand for a 90 min period and then assessed for EGFR steady-state level by Western analysis. EGFR levels for unstimulated and stimulated sample pairs are shown. A) n=2; B) n=2; C) n=2.
(§2) We investigated the specificity of the inhibitory effect. F15 and N16 impaired Tsg101-co-localization with Gag on the plasma membrane (c.f, FIG. 19) and reduced release of the VLPs assembled by Gag (c.f, FIG. 15). […] Cell metabolic activity was not affected after exposure to N16 for 24 hr; it decreased by less than 10% after exposure to N16 for 48 hr (not shown). Tsg101 localization to the midbody of dividing cells requires its recruitment to that location by centrosomal protein of 55k (CEP55) which binds a site in the Tsg101 Pro-rich domain (aa 154-166) (Lee, H. H., et al. (2008)). […]

EGFR = experiment: EGF-stimulated EGFR degradation, Western analysis; details: concentrations well above 50 JAM
Method: as §1, §2

HIV-1 NL4-3 P7L = experiment: Electron microscopy of budding morphologies, WT- or P7L-NL4-3; details: 50 μM N16
Method: FIG. 15A-D. N16 inhibits HIV-1 NL4-3 and Gag VLP production. A) Effect on virus production. Virus particles from N16-treated 293T cells transfected with pNL4-3 as determined by ELISA assay. Top, The compound was added 6 hr prior to DNA transfection and tissue culture media was harvested 24 hr later. Bottom, The compound was added at the indicated concentration 24 hr after DNA transfection and tissue culture media was harvested 24 hr later. Assay values were normalized to that of the DMSO carrier control. B) Effect on virus infectivity. Infectious viral particles per ng p24 as determined by MAGI assay. C) Left, Electron microscopy of particles at cell surface at 24 hr post-N16 addition; Right, Quantitative analysis of budding morphologies. Cells expressing WT- or P7L-NL4-3 were exposed to DMSO carrier or 50 μM N16. Arrows indicate emerging ‘Early’ buds. D) Effects on Gag VLP production. Top, Western blot analysis. Cells treated at the indicated concentration were transfected with DNA encoding Gag-HA. […] Bottom, Quantitative analysis. […]
Electron microscopy was used to identify the event arrested by N16 treatment. […] Treatment of P7L with N16 blocked the residual particle release that the mutation permits (mediated by Alix, an ESCRT adaptor, Fujii, K. et al. (2009)) and shifted the predominant form detected from ‘Tethered’ to ‘Early’.

## COc1ccc2[nH]c([S+]([O-])Cc3ncc(C)c(OC)c3C)nc2n1 (stereo not drawn) [N16, tenatoprazole]
[1]
  frequency of cells exhibiting Tsg101 midbody localization: 13%
EGFR
  EGFR down-regulation function: unimpaired
HIV-1 NL4-3 P7L
  residual particle release of P7L: blocked
